Where two headings read alike, the source gives them in different places.
Legend:
recombinant human GABA-T = molecular target: T1, recombinant human GABA-T (Homo sapiens, UniProt P80404); experiment: GABA-T inhibition assay, coupled with SSADH, NADPH absorbance at 340 nm (Mixture C); format: biochemical; settings: for IC50: IC50 for human GABA-T, 10 min preincubation, 25 °C, pH 8.6, 200 µM GABA
T1 construct: made in house; host or cells: Expi293F human cells, transient transfection
Experimental: (§1) All test samples were prepared at a final volume of 200 µl/well in a 96-well plate with a clear flat bottom, and the enzyme reaction was carried out at 25 °C. The final solution of the assay in Figure 3(B) consisted of SSA (0, 12.5, 25, 50, 100, and 200 µM), 2.5 mM β-NADP^+, 1 mM 2-mercaptoethanol (2-ME), and SSADH (from 20 µL of 1 U/mL gabaculine-treated GABase) in 50 mM K4P2O7 buffer (pH 8.6). The final solution of the assay in Figure 3(C) consisted of GABA (0, 100 and 200 µM), 2.5 mM β-NADP^+, 5 mM α-KG, 1 mM 2-ME and each enzymatic mixture (Mixture A: 10 µL of 1 U/mL GABase; Mixture B: 10 µL of 1 U/mL gabaculine-treated GABase; Mixture C: 2 µg of human GABA-T mixed with 10 µL of 1 U/mL gabaculine-treated GABase) in 50 mM K4P2O7 buffer at pH 8.6. The final solution of the assay in Figure 3(D) consisted of 200 µM GABA, 2.5 mM β-NADP^+, 5 mM α-KG, 1 mM 2-ME, SSADH (from Mixture B) and human GABA-T at various concentrations (0.156, 0.313, 0.625, 1.25, 2.5, 5, and 10 µg/mL) in 50 mM K4P2O7 buffer at pH 8.6. […] The final solution of the assay in Figure 4(A) consisted of gabaculine (0, 15.63, 31.25, 62.5, 125, 250, 500, and 1000 nM), 200 µM GABA, 2.5 mM β-NADP^+, 5 mM α-KG, and each enzymatic mixture (A or C) in 50 mM K4P2O7 buffer (pH 8.6) containing or not containing 1 mM 2-ME. […] The change in 340 nm absorbance at 25 °C caused by the conversion of NADP^+ to NADPH, which is proportional to GABA-T activity, was recorded every 4 min kinetically with SpectraMax iD5 Multi-Mode Microplate Reader (Molecular Devices). GABA-T activity was calculated during the linear phase of the reaction, corrected for background from blanks. All experiments were performed in triplicate and data were presented as mean ± SEM (Standard Error of Mean) or each replicate. Data plotting and regression analysis were performed with GraphPad Prism software (Version 9.1.2, GraphPad Software).

bacterial GABA-T = molecular target: T2, bacterial GABA-T (Pseudomonas fluorescens, UniProt Q4KKA1); experiment: GABA-T inhibition assay with GABase, NADPH absorbance at 340 nm (Mixture A); format: biochemical; settings: for IC50: 10 min preincubation, 25 °C, pH 8.6, 200 µM GABA
T2 sequence (Q4KKA1 1-425): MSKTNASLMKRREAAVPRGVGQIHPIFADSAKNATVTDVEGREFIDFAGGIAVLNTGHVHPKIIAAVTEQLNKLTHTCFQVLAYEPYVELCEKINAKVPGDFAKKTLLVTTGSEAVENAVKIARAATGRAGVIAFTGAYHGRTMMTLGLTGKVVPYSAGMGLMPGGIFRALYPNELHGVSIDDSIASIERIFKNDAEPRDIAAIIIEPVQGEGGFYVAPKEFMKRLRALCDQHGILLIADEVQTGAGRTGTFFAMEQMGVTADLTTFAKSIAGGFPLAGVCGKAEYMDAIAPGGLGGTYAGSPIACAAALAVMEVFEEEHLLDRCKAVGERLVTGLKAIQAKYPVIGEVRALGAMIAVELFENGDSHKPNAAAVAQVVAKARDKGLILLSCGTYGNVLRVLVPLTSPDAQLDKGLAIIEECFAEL
From the text: GABase (Merck, G7509) is a convenient and inexpensive source of SSADH, as it is a commercially available mixture composed of bacterial GABA-T and SSADH obtained from Pseudomonas fluorescens. However, GABase was not able to be used directly in our human GABA-T assay due to the presence of bacterial GABA-T. So we used the bacterial SSADH isolation method as previously described, which allowed large amounts of bacterial SSADH to be isolated quickly and conveniently from GABase by irreversibly inhibiting the bacterial GABA-T activity. Five milligrams of gabaculine (Santa Cruz Biotechnology, sc-200473), a naturally occurring GABA-T irreversible inhibitor, was added to 25 ml of 1 U/mL GABase solution (reconstituted with 50 mM K4P2O7 buffer at pH 8.6), followed by maintaining the reaction at 4 °C for 30 min. The residual gabaculine, which also can inactivate recombinant human GABA-T, was eliminated by dialysis at 4 °C with 2 L of K4P2O7 buffer, changed 3 times per 9 h followed by the final dialysis overnight. The isolated bacterial SSADH was stored at −80 °C for long-term storage.
as §1

T1 sequence (P80404 29-500): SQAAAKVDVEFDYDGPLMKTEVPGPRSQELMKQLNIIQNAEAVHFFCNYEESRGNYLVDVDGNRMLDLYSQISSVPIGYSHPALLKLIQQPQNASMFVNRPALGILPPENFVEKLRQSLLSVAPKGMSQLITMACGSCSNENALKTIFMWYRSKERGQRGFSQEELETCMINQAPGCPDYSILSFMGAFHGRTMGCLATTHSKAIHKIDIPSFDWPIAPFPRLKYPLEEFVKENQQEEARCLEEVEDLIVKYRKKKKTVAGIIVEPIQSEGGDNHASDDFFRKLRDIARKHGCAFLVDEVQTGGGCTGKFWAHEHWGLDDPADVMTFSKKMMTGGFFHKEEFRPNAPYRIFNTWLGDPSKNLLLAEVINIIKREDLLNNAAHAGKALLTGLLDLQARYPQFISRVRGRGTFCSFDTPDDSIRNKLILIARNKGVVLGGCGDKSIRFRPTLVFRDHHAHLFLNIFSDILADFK

Row | difference in sensitivity, human vs bacterial GABA-T (recombinant human GABA-T; with 2-ME, monomeric form) [fold] | difference in sensitivity, human vs bacterial GABA-T (recombinant human GABA-T; without 2-ME, human homodimeric vs bacterial multimeric form) [fold] | IC50 (bacterial GABA-T; absence of 2-ME (multimeric form), read-out: IC50 for bacterial GABA-T) [µM] | IC50 (bacterial GABA-T; presence of 1 mM 2-ME (monomeric form), read-out: IC50 for bacterial GABA-T) [µM] | Structure (SMILES) | IC50 (recombinant human GABA-T; absence of 2-ME (homodimeric/multimeric form)) [µM] | IC50 (recombinant human GABA-T; presence of 1 mM 2-ME (monomeric form)) [µM] | GABA degradation-dependent NADPH synthesis in GABase after treatment (bacterial GABA-T; 5 mg gabaculine in 25 ml of 1 U/mL GABase, 4 °C, 30 min, then dialysis, GABA 0, 100, 200 µM) | IC50 (bacterial GABA-T; IC50 for bacterial GABA-T, absence of 2-ME (multimeric form)) [µM] | IC50 (bacterial GABA-T; IC50 for bacterial GABA-T, presence of 1 mM 2-ME (monomeric form)) [µM]
1 |  |  |  |  | NC1C=CC=C(C(=O)O)C1 (stereo not drawn) [gabaculine] | 0.22 | 0.12 | completely impaired | 0.19 | 0.13
2 | 202 | 70 | 631 | 14200 | C=CC(N)CCC(=O)O (stereo not drawn) [vigabatrin] |  |  |  |  | 
